The record followed here is patent US20080261994A1, “CYCLOPROPANE COMPOUNDS AND PHARMACEUTICAL USE THEREOF” (Japan Tobacco Inc., priority 2003, published 2008).

What all share (format): biochemical
One experiment concerns the target T1, aggrecanase-1 (Homo sapiens, UniProt O75173).
T1 sequence (O75173 213-837): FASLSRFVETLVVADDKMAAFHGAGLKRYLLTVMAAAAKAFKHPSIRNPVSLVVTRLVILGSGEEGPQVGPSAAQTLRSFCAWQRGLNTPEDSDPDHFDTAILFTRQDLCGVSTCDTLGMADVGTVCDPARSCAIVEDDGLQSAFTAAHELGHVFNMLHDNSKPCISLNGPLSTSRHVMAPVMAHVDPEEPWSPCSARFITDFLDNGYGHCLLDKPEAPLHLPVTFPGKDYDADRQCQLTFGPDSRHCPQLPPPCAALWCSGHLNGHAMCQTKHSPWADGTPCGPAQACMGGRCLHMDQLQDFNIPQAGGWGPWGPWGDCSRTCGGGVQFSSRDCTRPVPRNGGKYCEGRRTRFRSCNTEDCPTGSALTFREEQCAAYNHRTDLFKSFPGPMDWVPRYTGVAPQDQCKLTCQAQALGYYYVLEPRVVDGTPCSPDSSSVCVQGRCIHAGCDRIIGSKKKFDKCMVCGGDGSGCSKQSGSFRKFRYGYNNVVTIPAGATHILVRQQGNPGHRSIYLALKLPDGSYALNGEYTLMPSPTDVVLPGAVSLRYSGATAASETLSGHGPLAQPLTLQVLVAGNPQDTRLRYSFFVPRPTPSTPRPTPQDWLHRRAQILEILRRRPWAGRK
Put plainly: Aggrecanase-1 inhibitory action (Particle Assay, GAG release from aggrecan-containing polyacrylamide particles). As to conditions: aggrecanase-1 inhibitory action; read-out: IC50 AG1 (Experimental Example 1). The gist of the method: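 Readout was dimethylmethylene blue absorbance (595 nm) of glycosaminoglycan liberated into supernatant, calibrated with whale chondroitin sulfate. Substrate was aggrecan in polyacrylamide particles, digested 15 h at 37° C in Tris-HCl; TC50 (μM) derived from inhibition relative to no-enzyme and no-inhibitor controls.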

The target in a further experiment is T2, MMP-1 (Homo sapiens, UniProt P03956).
T2 sequence (P03956 100-469): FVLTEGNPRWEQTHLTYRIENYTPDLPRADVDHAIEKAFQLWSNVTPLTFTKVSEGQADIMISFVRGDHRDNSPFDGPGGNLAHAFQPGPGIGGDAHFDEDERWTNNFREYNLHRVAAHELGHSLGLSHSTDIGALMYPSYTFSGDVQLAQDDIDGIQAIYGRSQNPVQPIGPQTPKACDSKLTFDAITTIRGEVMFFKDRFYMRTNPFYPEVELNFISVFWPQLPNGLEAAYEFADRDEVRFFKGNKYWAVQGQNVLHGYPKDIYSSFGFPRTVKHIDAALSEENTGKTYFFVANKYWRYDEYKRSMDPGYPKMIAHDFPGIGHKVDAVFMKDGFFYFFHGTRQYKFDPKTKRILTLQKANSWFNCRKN
Put plainly: MMP-1 inhibitory action (Type I collagen Activity Measurement kit, FITC-labeled collagen type I). As to conditions: MMP-1 inhibitory action, FITC-labeled collagen type I, 37° C. for 3 hr; read-out: IC50 MMP1 (Experimental Example 2).

The next experiment has as its target T3, Recombinant Human MMP-13 (Homo sapiens, UniProt P45452).
T3 construct: purchased R&D systems 511-MM
The experiment is described as follows: MMP-13 inhibitory activity (MMP-13 specific fluorescent substrate with quencher). As to conditions: Recombinant Human MMP-13, fluorescent substrate, 25° C. for 1 h; read-out: IC50 MMP13 (Experimental Example 3). The gist of the method: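 IC50 (μM) derived from % inhibition, normalised to wells without enzyme and without inhibitor, fluorescence read at 325/405 nm. Enzyme and compound preceded addition of the quenched 7-MCA…DPA substrate; Tris-HCl buffer, 25 °C for 1 h, acetic-acid stop.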

As usually defined, the IC50 is the concentration at which inhibition is half-maximal.

`O=C(O)C1(NS(=O)(=O)c2ccc(S(=O)(=O)c3ccccc3)s2)CC1c1ccccc1` (stereo not drawn) [Example 2-81]: the IC50 on aggrecanase-1, on MMP-1 and at Recombinant Human MMP-13 was ≥ 10 µM in each case.
For the molecule `O=C(O)C1(NS(=O)(=O)c2ccc(Cl)s2)CC1c1ccccc1` (stereo not drawn) [Example 2-82], the IC50 on aggrecanase-1, at MMP-1 and on Recombinant Human MMP-13 was ≥ 10 µM each time.
For the molecule `O=C(O)C1(NS(=O)(=O)c2cccs2)CC1c1ccccc1` (stereo not drawn) [Example 2-83], the IC50 at aggrecanase-1, on MMP-1 and on Recombinant Human MMP-13 was ≥ 10 µM in each case.
For the molecule `CC(F)(F)c1cc(-c2ccc(S(=O)(=O)N[C@@]3(C(=O)O)C[C@@H]3c3ccccc3)s2)no1` [Example 2-84], the figures for the IC50 at aggrecanase-1, at MMP-1 and at Recombinant Human MMP-13 were < 0.1 µM, < 1 µM and < 0.1 µM, respectively.
With `Cc1cc(-c2ccc(S(=O)(=O)N[C@@]3(C(=O)O)C[C@@H]3c3ccccc3)s2)no1` [Example 2-85], the IC50 at aggrecanase-1 is < 1 µM; at MMP-1 it was ≥ 1 µM; at Recombinant Human MMP-13, < 0.1 µM.
`Cc1csc(-c2cccc(C3CC3(NS(=O)(=O)c3ccc(-c4ccc(Cl)cc4)s3)C(=O)O)c2)n1` (stereo not drawn) [Example 2-86]: the IC50 at aggrecanase-1 is < 0.1 µM; at MMP-1 it was ≥ 10 µM; at Recombinant Human MMP-13 it was < 1 µM.
As for `Cc1nc(-c2ccc(S(=O)(=O)NC3(C(=O)O)CC3c3ccccc3)s2)co1` (stereo not drawn) [Example 2-87], the figures for the IC50 on aggrecanase-1, at MMP-1 and at Recombinant Human MMP-13 were ≥ 10 µM, ≥ 10 µM and ≥ 1 µM, respectively.
With `Cc1nc(-c2ccc(S(=O)(=O)NC3(C(=O)O)CC3c3ccccc3)s2)c(Cl)o1` (stereo not drawn) [Example 2-88], the IC50 on aggrecanase-1, at MMP-1 and at Recombinant Human MMP-13 was ≥ 10 µM in each case.
`COCCN(C)Cc1ccccc1C1CC1(NS(=O)(=O)c1ccc(-c2ccc(Cl)cc2)s1)C(=O)O` (stereo not drawn) [Example 2-89]: the IC50 is ≥ 1 µM at aggrecanase-1, ≥ 10 µM on MMP-1 and ≥ 1 µM at Recombinant Human MMP-13.
Consider `CCCc1cc(-c2ccc(S(=O)(=O)N[C@@]3(C(=O)O)C[C@@H]3c3ccccc3)s2)no1` [Example 2-90], for which the figures for the 50% inhibitory concentration (IC50) on aggrecanase-1, at MMP-1 and on Recombinant Human MMP-13 were ≥ 1 µM, ≥ 1 µM and < 0.1 µM, respectively.
For `O=C(O)C1(NS(=O)(=O)c2ccc(-c3ccc(Cl)cc3)s2)CC1c1ccccc1CN1CCOCC1` (stereo not drawn) [Example 2-91], the IC50 on aggrecanase-1 was < 1 µM; on MMP-1 it was ≥ 10 µM; on Recombinant Human MMP-13, < 1 µM.
On to `CCc1cc(-c2ccc(S(=O)(=O)N[C@@]3(C(=O)O)C[C@@H]3c3ccccc3)s2)no1` [Example 2-92], for which the figures for the IC50 at aggrecanase-1, at MMP-1 and on Recombinant Human MMP-13 were < 0.1 µM, < 1 µM and < 0.1 µM, respectively.
Consider `CCCNC(=O)c1ccc(S(=O)(=O)NC2(C(=O)O)CC2c2ccccc2)s1` (stereo not drawn) [Example 2-93], for which the IC50 was ≥ 10 µM at aggrecanase-1, ≥ 10 µM at MMP-1 and ≥ 1 µM at Recombinant Human MMP-13.
Regarding `CC(C)NC(=O)c1ccc(S(=O)(=O)NC2(C(=O)O)CC2c2ccccc2)s1` (stereo not drawn) [Example 2-94], the IC50 on aggrecanase-1, on MMP-1 and at Recombinant Human MMP-13 was ≥ 10 µM each time.
As for `O=C(NC1CCCC1)c1ccc(S(=O)(=O)NC2(C(=O)O)CC2c2ccccc2)s1` (stereo not drawn) [Example 2-95], the IC50 on aggrecanase-1, on MMP-1 and at Recombinant Human MMP-13 was ≥ 10 µM in each case.
`O=C(Nc1ccccc1)c1ccc(S(=O)(=O)NC2(C(=O)O)CC2c2ccccc2)s1` (stereo not drawn) [Example 2-96]: the IC50 on aggrecanase-1 is ≥ 10 µM; at MMP-1 it was ≥ 10 µM; on Recombinant Human MMP-13 it was < 1 µM.
On to `O=C(NCCC(F)(F)F)c1ccc(S(=O)(=O)NC2(C(=O)O)CC2c2ccccc2)s1` (stereo not drawn) [Example 2-97], for which the IC50 on aggrecanase-1, on MMP-1 and on Recombinant Human MMP-13 was ≥ 10 µM each time.
Turning to `O=C(O)[C@]1(NS(=O)(=O)c2ccc(-c3cc(CF)on3)s2)C[C@@H]1c1ccccc1` [Example 2-98], the IC50 at aggrecanase-1 is < 0.1 µM; on MMP-1 it was ≥ 1 µM; on Recombinant Human MMP-13, < 0.1 µM.
Consider `O=C(O)[C@]1(NS(=O)(=O)c2ccc(-c3cc(C(F)F)on3)s2)C[C@@H]1c1ccccc1` [Example 2-99], for which the IC50 is < 0.1 µM on aggrecanase-1, < 1 µM at MMP-1 and < 1 µM on Recombinant Human MMP-13.
For `C[C@]1(c2ccccc2)C[C@@]1(NS(=O)(=O)c1ccc2c(c1)Cc1cc(Br)ccc1-2)C(=O)O` [Example 2-100], the IC50 is < 0.1 µM at aggrecanase-1, < 1 µM at MMP-1 and < 0.1 µM on Recombinant Human MMP-13.
Take `C[C@]1(c2ccccc2)C[C@@]1(NS(=O)(=O)c1ccc(-c2ccc(Cl)cc2)s1)C(=O)O` [Example 2-101]: the results for the IC50 on aggrecanase-1, on MMP-1 and at Recombinant Human MMP-13 were < 0.1 µM, ≥ 1 µM and < 1 µM, respectively.
For `O=C(O)c1ccc(S(=O)(=O)NC2(C(=O)O)CC2c2ccccc2)s1` (stereo not drawn) [Example 2-103] the same measures were ≥ 10 µM, ≥ 10 µM and ≥ 10 µM.
For `CCNC(=O)c1ccc(S(=O)(=O)NC2(C(=O)O)CC2c2ccccc2)s1` (stereo not drawn) [Example 2-104] the same measures were ≥ 10 µM, ≥ 10 µM and ≥ 10 µM.
For `O=C(NC1CC1)c1ccc(S(=O)(=O)NC2(C(=O)O)CC2c2ccccc2)s1` (stereo not drawn) [Example 2-105] the same measures were ≥ 10 µM, ≥ 10 µM and ≥ 10 µM.
`O=C(NCC(F)(F)F)c1ccc(S(=O)(=O)NC2(C(=O)O)CC2c2ccccc2)s1` (stereo not drawn) [Example 2-106]: the IC50 on aggrecanase-1, on MMP-1 and on Recombinant Human MMP-13 was ≥ 10 µM in each case.
`CC(F)(F)c1cc(-c2ccc(S(=O)(=O)N[C@@]3(C(=O)O)C[C@]3(C)c3ccccc3)s2)no1` [Example 2-107]: the values for the IC50 at aggrecanase-1, on MMP-1 and on Recombinant Human MMP-13 were < 0.1 µM, < 1 µM and < 0.1 µM, respectively.
Turning to `CC(=O)OCCc1cccc(C2CC2(NS(=O)(=O)c2ccc(-c3ccc(Cl)cc3)s2)C(=O)O)c1` (stereo not drawn) [Example 2-108], the IC50 on aggrecanase-1 was < 0.1 µM; at MMP-1, ≥ 1 µM; at Recombinant Human MMP-13 it was < 0.1 µM.
For the molecule `O=C(O)C1(NS(=O)(=O)c2ccc(-c3ccc(Cl)cc3)s2)CC1c1cccc(CCO)c1` (stereo not drawn) [Example 2-109], the IC50 is < 0.1 µM at aggrecanase-1, ≥ 10 µM at MMP-1 and < 0.1 µM on Recombinant Human MMP-13.
`COCc1cc(-c2ccc(S(=O)(=O)N[C@@]3(C(=O)O)C[C@@H]3c3ccccc3)s2)no1` [Example 2-110]: the results for the half-inhibitory concentration (IC50) on aggrecanase-1, at MMP-1 and at Recombinant Human MMP-13 were < 1 µM, ≥ 1 µM and < 0.1 µM, respectively.
In the case of `O=C(O)[C@]1(NS(=O)(=O)c2ccc(-c3cc(C(F)(F)C(F)(F)F)on3)s2)C[C@@H]1c1ccccc1` [Example 2-111], the IC50 was ≥ 1 µM on aggrecanase-1, ≥ 10 µM at MMP-1 and < 1 µM at Recombinant Human MMP-13.
The corresponding values for `C[C@]1(c2ccccc2)C[C@@]1(NS(=O)(=O)c1ccc(-c2cc(C(F)(F)C(F)(F)F)on2)s1)C(=O)O` [Example 2-112] are < 1 µM, ≥ 10 µM and ≥ 1 µM.
The corresponding values for `O=C(O)[C@]1(NS(=O)(=O)c2ccc(-c3cc4ccccc4s3)s2)C[C@@H]1c1ccccc1` [Example 2-113] are < 0.1 µM, < 1 µM and < 0.1 µM.
The corresponding values for `O=C(O)[C@]1(NS(=O)(=O)c2ccc(-c3cc(-c4ccccc4)on3)s2)C[C@@H]1c1ccccc1` [Example 2-114] are ≥ 1 µM, < 1 µM and < 0.1 µM.
